Patent US5780441A, “Sphingoglycolipid compounds and therapeutic uses thereof” (Kirin Beer Kabushiki Kaisha, priority 1993, dated 1998)

Key:
[1] = system: P388 mouse leukemia cells; assay: Life-span-prolonging (anti-tumor) effect on mice subcutaneously inoculated with P388 mouse leukemia cells; format: in vivo, mouse (CDF1 female); details: 0.1 mg/kg i.v. on days 1, 5 and 9; for Survival days ave. ± s. d.: all marked ** (p < 0.01); for response vs control in vivo at 0.1 mg/kg: Mus musculus, P388, iv, survival vs vehicle, read-out: T/C (%)
Protocol: i) Anti-tumor effect of the compound of the present invention on mice subcutaneously inoculated with P388 mouse leukemia cells.
Experiment was performed with CDF1 female mice (6 weeks) purchased from NIPPON SLC K.K., which were divided into groups consisting of 5 animals. […]. In this connection, lentinan and picibanil were administered intravenously on days 1, 3, 5, 7 and 9 after implantation, and sizofilan was administered subcutaneously on days 1 through 9. Statistical analysis was performed according to the Mann-Whiteney test.

mouse bone marrow cells = assay: In vitro mouse bone marrow cell-proliferation-promoting effect (3H-TdR uptake); format: cell-based, mouse (BDF1 female); details: Mus musculus, Bone marrow cell, 96 h, 4 days, read-out: Uptake of 3H-TdR (% of control), bone marrow cells; for activity at 0.1 µg/mL: 10^-1 μg/ml; for activity at 0.01 µg/mL: 10^-2 μg/ml
Protocol: In vitro mouse bone marrow cell-proliferation-promoting effect of the present compound
Experiment was performed with BDF1 female mice (6 weeks old) purchased from NIPPON SLC K.K. Bone marrow cells were removed from the femoral bone of mice by the conventional manner, floated on 10% FCS RPMI 1640, layered over Lympholite M, and centrifuged to give a monocyte fraction. 1×10^6 cells/ml of the monocyte fraction was suspended in 10% FCS RPMI 1640. The cell suspension (100 μl/well) and a vehicle or sample (10 μl/well) which was prepared so as to have a final level shown in Table 2 were added into a wells of round-bottomed 96 well plate, and cultured under the condition of 5% CO2 at 37° C. for 4 days. 0.5 μCi/well of ^3 H-thymidine (^3 H-TdR) was added. After 6 hours, the cells were harvested, and the amount of ^3 H-TdR uptaken into nucleus was measured by a liquid scintillation counter. The ratio of the uptake of ^3 H-TdR in the sample group to that in the vehicle group was calculated and used as the activation rate for promoting in vitro mouse bone marrow cell growth.

mouse splenic lymphocyte = assay: In vitro mouse splenic lymphocyte-proliferation-stimulating effect (3H-TdR uptake); format: cell-based, mouse (BDF1 female); details: Mus musculus, Splenic lymphocyte, 48 h, 2 days, read-out: Uptake of 3H-TdR (% of control), splenic lymphocytes; for activity at 1 µg/mL: 10^0 μg/ml; for activity at 0.1 µg/mL: 10^-1 μg/ml; for activity at 0.01 µg/mL: 10^-2 μg/ml; for activity at 0.001 µg/mL: 10^-3 μg/ml
Protocol: i) In vitro mouse splenic lymphocyte growth promoting effects of the present compounds
Experiment was performed with BDF1 female mice (6 weeks old) purchased from NIPPON SLC K.K. Spleens were removed from mice, and spleen cells were brayed with slide glasses and hemolized with NH4 Cl. 2×10^6cells/ml of the spleen cells which had been hemolized were suspended in 10% FCS RPMI 1640. The cell suspension (100 μl/well) and a vehicle or sample (10 μl/well) which was prepared so as to have a final level shown in Table 3 were added into wells of a round-bottomed 96 well plate, and cultured under the condition of 5% CO2 at 37° C. for 2 days. 0.5 μCi/well of ^3 H-thymidine (^3 H-TdR) was added. After 6 hours, the cells were harvested, and the amount of ^3 H-TdR uptaken into nucleus was measured by a liquid scintillation counter. The ratio (%) of the uptake of ^3 H-TdR in the sample group to that in the vehicle group was calculated and used as the in vitro mouse splenic lymphocyte-proliferation-stimulating rate.

[2] = system: mixed lymphocyte culture reaction (spleen cells of C57BL/6 and BALB/C mice); assay: Mixed lymphocyte culture reaction (MLR); format: cell-based, mouse (C57BL/6 stimulator, BALB/C responder); details: Mus musculus, Lymphocyte, 42 hours, read-out: MLR activating rate (%); for activity at 1 µg/mL: 1 × 10^0 μg/ml; for activity at 0.1 µg/mL: 1 × 10^-1 μg/ml
Protocol: ii) Mixed lymphocyte culture reaction (MLR) of the compounds of the present invention
Spleen cells were prepared from C57BL/6 mice and treated with 50 μg/ml of mitomycin C for 30 minutes. The treated cells were used as stimulator cells, and the spleen cells of BALB/C mice as responder cells. 2×10^6 cells/ml of the both spleen cells were suspended in 10% FCS RPMI1640 as a culture medium. The above-described cells (50 μl/well) and a sample (10 μl/well) were added into wells of a round-bottomed 96 well plate, and cultured under the condition of 5% CO2 at 37° C. for 42 hours. 0.5 μCi/well of ^3 H-thymidine (^3 H-TdR) was added. After 8 hours, the cells were harvested, and the amount of uptaken ^3 H-TdR was measured by a liquid scintillation counter to calculate the ratio (%) of the uptake of ^3 H-TdR in the sample group to that in the vehicle group as the MLR activating rate.

SMILES | Survival days ave. ± s. d. [1] | response vs control in vivo at 0.1 mg/kg [1] | activity at 0.1 µg/mL (mouse bone marrow cells) | activity at 0.01 µg/mL (mouse bone marrow cells) | activity at 1 µg/mL (mouse splenic lymphocyte) | activity at 0.1 µg/mL (mouse splenic lymphocyte) | activity at 0.01 µg/mL (mouse splenic lymphocyte) | activity at 0.001 µg/mL (mouse splenic lymphocyte) | activity at 1 µg/mL [2] | activity at 0.1 µg/mL [2]
CCCCCCCCCCCCCCCCCCCC[C@@H](O)C(=O)N[C@@H](CO[C@H]1O[C@H](CO)[C@H](O)[C@H](O[C@@H]2O[C@@H]([C@H](O)CO)[C@H](O)[C@H]2O)[C@H]1O)[C@H](O)[C@H](O)CCCCCCCCCCCC [Compound 10, O-β-D-galactofuranosyl-(1→3)-O-α-D-galactopyranosyl-(1→1)-(2S,3S,4R)-2-amino-N-[(R)-2-hydroxydocosanoyl]-1,3,4-hexadecanetriol] | 13.8 ± 0.4 days | 108% | 286% | 147% | 509% | 375% | 277% | 102% | 174% | 132%
CCCCCCCCCCCCCCCCCCCCC[C@@H](O)C(=O)N[C@@H](CO[C@H]1O[C@H](CO)[C@H](O)[C@H](O[C@@H]2O[C@@H]([C@H](O)CO)[C@H](O)[C@H]2O)[C@H]1O)[C@H](O)[C@H](O)CCCCCCCCCCCC [Compound 11, O-β-D-galactofuranosyl-(1→3)-O-α-D-galactopyranosyl-(1→1)-(2S,3S,4R)-2-amino-N-[(R)-2-hydroxytricosanoyl]-1,3,4-hexadecanetriol] | 13.4 ± 0.5 days | 105% | 410% | 281% | 646% |  | 858% | 116% | 225% | 258%
CCCCCCCCCCCCCCCCCCCCCC[C@@H](O)C(=O)N[C@@H](CO[C@H]1O[C@H](CO)[C@H](O)[C@H](O[C@@H]2O[C@@H]([C@H](O)CO)[C@H](O)[C@H]2O)[C@H]1O)[C@H](O)[C@H](O)CCCCCCCCCCCC [Compound 12, O-β-D-galactofuranosyl-(1→3)-O-α-D-galactopyranosyl-(1→1)-(2S,3S,4R)-2-amino-N-[(R)-2-hydroxytetracosanoyl]-1,3,4-hexadecanetriol] | 13.8 ± 0.8 days | 108% | 381% | 378% | 509% | 982% | 772% | 113% | 203% | 187%
CCCCCCCCCCCCCCCCCCCCCC[C@@H](O)C(=O)N[C@@H](CO[C@H]1O[C@H](CO)[C@H](O)[C@H](O[C@@H]2O[C@@H]([C@H](O)CO)[C@H](O)[C@H]2O)[C@H]1O)[C@H](O)[C@H](O)CCCCCCCCCCC(C)C [Compound 13, O-β-D-galactofuranosyl-(1→3)-O-α-D-galactopyranosyl-(1→1)-(2S,3S,4R)-2-amino-N-[(R)-2-hydroxytetracosanoyl]-15-methyl-1,3,4-hexadecanetriol] | 14.6 ± 0.5 days | 114% | 546% | 395% | 788% |  |  | 227% | 276% | 248%
CCCCCCCCCCCCCCCCCCCCCC[C@@H](O)C(=O)N[C@@H](CO[C@H]1O[C@H](CO)[C@H](O)[C@H](O[C@@H]2O[C@@H]([C@H](O)CO)[C@H](O)[C@H]2O)[C@H]1O)[C@H](O)[C@H](O)CCCCCCCCCCCCC [Compound 14, O-β-D-galactofuranosyl-(1→3)-O-α-D-galactopyranosyl-(1→1)-(2S,3S,4R)-2-amino-N-[(R)-2-hydroxytetracosanoyl]-1,3,4-heptadecanetriol] | 13.8 ± 0.4 days | 108% | 838% | 659% | 640% |  |  | 252% | 261% | 232%
CCCCCCCCCCCCCCCCCCCCCC[C@@H](O)C(=O)N[C@@H](CO[C@H]1O[C@H](CO)[C@H](O)[C@H](O[C@@H]2O[C@@H]([C@H](O)CO)[C@H](O)[C@H]2O)[C@H]1O)[C@H](O)[C@H](O)CCCCCCCCCCCC(C)C [Compound 15, O-β-D-galactofuranosyl-(1→3)-O-α-D-galactopyranosyl-(1→1)-(2S,3S,4R)-2-amino-N-[(R)-2-hydroxytetracosanoyl]-16-methyl-1,3,4-heptadecanetriol] | 14.0 ± 0 days | 109% | 501% | 291% | 845% |  |  | 394% | 295% | 253%
CCCCCCCCCCCCCCCCCCCCCC[C@@H](O)C(=O)N[C@@H](CO[C@H]1O[C@H](CO)[C@H](O)[C@H](O[C@@H]2O[C@@H]([C@H](O)CO)[C@H](O)[C@H]2O)[C@H]1O)[C@H](O)[C@H](O)CCCCCCCCCCCCCC [Compound 16, O-β-D-galactofuranosyl-(1→3)-O-α-D-galactopyranosyl-(1→1)-(2S,3S,4R)-2-amino-N-[(R)-2-hydroxytetracosanoyl]-1,3,4-octadecanetriol] | 14.8 ± 0.8 days | 116% | 325% | 296% | 740% |  |  | 702% | 274% | 262%
CCCCCCCCCCCCCCCCCCCCCC[C@@H](O)C(=O)N[C@@H](CO[C@H]1O[C@H](CO)[C@H](O)[C@H](O[C@@H]2O[C@@H]([C@H](O)CO)[C@H](O)[C@H]2O)[C@H]1O)[C@H](O)[C@H](O)CCCCCCCCCCCCC(C)C [Compound 17, O-β-D-galactofuranosyl-(1→3)-O-α-D-galactopyranosyl-(1→1)-(2S,3S,4R)-2-amino-N-[(R)-2-hydroxytetracosanoyl]-17-methyl-1,3,4-octadecanetriol] | 14.8 ± 0.8 days | 116% | 592% |  | 781% |  |  | 767% | 283% | 242%
